Source: patent US20250163038A1, “CBL-B MODULATORS AND USES THEREOF” (Nimbus Clio, Inc., priority 2021, published 2025)
Read-outs that look alike come from different tables or passages of the source.

How the values were obtained:
[1] = target: Recombinant human Cbl-b (aa 36-427) (Homo sapiens, UniProt Q13191); assay: Cbl-b Biochemical Assay (TR-FRET); details: read-out: TR-FRET hCbl-b IC50
[2] = target: T1, Recombinant human c-Cbl (aa 47-435) (Homo sapiens, UniProt P22681); assay: c-Cbl Biochemical Assay (TR-FRET); details: hc-Cbl Biochemical Assay (TR-FRET); read-out: TR-FRET hcCbl IC50
T1 sequence (P22681 47-435): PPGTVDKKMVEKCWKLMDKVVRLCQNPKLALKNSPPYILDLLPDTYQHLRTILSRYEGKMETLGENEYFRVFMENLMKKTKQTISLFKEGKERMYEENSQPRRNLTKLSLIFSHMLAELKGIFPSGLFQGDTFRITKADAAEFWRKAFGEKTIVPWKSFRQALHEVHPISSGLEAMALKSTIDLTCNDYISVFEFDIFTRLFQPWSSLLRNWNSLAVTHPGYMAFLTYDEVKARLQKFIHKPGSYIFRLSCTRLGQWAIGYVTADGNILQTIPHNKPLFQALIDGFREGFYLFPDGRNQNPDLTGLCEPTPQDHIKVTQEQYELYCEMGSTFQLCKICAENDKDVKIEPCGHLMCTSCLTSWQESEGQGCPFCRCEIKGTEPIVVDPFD

[3] = test system: Jurkat (clone E6-1) cells with NFAT luciferase reporter; assay: Jurkat reporter assay (NFAT Luciferase); format: cell-based; details: Homo sapiens
[4] = Jurkat NFAT luciferase reporter cells, anti-CD3 stimulation, 6 hr, read-out: Jurkat NFAT EC50
[5] = Jurkat, 6 h, read-out: Jurkat NFAT EC50 (μM)

Chain of Recombinant human Cbl-b (aa 36-427) (Q13191 36-427): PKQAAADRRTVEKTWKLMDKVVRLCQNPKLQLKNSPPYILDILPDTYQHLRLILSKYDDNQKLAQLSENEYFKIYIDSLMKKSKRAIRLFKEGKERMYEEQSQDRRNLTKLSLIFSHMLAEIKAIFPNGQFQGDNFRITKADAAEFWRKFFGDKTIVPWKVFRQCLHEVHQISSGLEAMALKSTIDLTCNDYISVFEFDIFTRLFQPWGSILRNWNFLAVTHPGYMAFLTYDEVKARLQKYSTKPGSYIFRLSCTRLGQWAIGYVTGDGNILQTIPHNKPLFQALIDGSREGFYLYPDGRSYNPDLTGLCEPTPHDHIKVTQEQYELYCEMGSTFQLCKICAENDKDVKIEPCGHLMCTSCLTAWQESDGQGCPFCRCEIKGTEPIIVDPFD

Row | Structure (SMILES) | IC50 [1] [nM] | IC50 [2] [nM] | EC50 [3, 4] [µM] | EC50 [3, 5] [µM]
1 | COc1cc(CN[C@H]2C[C@H](O)C2)cc2nc(-c3cccc(-c4ccc(F)cc4-c4nncn4C)c3)oc12 [GY-1, (1R,3R)-3-(((2-(4′-Fluoro-2′-(4-methyl-4H-1,2,4-triazol-3-yl)-[1,1′-biphenyl]-3-yl)-7-methoxybenzo[d]oxazol-5-yl)methyl)amino)cyclobutan-1-ol] | 200 to 1000 | 1000 to 10000 | 10 to 50 | –
2 | COc1cc(CNCC2COC2)cc2nc(-c3cccc(-c4ccc(F)cc4-c4nncn4C)c3)oc12 [GZ-1, 1-(2-(4′-Fluoro-2′-(4-methyl-4H-1,2,4-triazol-3-yl)-[1,1′-biphenyl]-3-yl)-7-methoxybenzo[d]oxazol-5-yl)-N-(oxetan-3-ylmethyl)methanamine] | < 200 | 200 to 1000 | 0.2 to 1 | –
3 | [2H]C([2H])(N[C@@H]1CCC[C@@H]1O)c1cc(C(F)(F)F)c2oc(-c3cccc(-c4ccc(F)cc4-c4nncn4C)c3)nc2c1 [HA-3, (1S,2R)-2-(((2-(4′-Fluoro-2′-(4-methyl-4H-1,2,4-triazol-3-yl)-[1,1′-biphenyl]-3-yl)-7-(trifluoromethyl)benzo[d]oxazol-5-yl)methyl-d2)amino)cyclopentan-1-ol] | < 200 | < 200 | < 0.2 | –
4 | [2H]C([2H])(NCC1(O)CCC1)c1cc(C(F)(F)F)c2oc(-c3cccc(-c4ccc(F)cc4-c4nncn4C)c3)nc2c1 [HB-1, 1-((((2-(4′-Fluoro-2′-(4-methyl-4H-1,2,4-triazol-3-yl)-[1,1′-biphenyl]-3-yl)-7-(trifluoromethyl)benzo[d]oxazol-5-yl)methyl-d2)amino)methyl)cyclobutan-1-ol] | < 200 | < 200 | < 0.2 | –
5 | CN(C)CC(=O)NCc1cc(C(F)(F)F)c2oc(-c3cccc(-c4ccc(F)cc4-c4nncn4C)c3)nc2c1 [HC-2, 2-(Dimethylamino)-N-((2-(4′-fluoro-2′-(4-methyl-4H-1,2,4-triazol-3-yl)-[1,1′-biphenyl]-3-yl)-7-(trifluoromethyl)benzo[d]oxazol-5-yl)methyl)acetamide] | < 200 | 200 to 1000 | 1 to 10 | –
6 | CC(=O)NCCNCc1cc(C(F)(F)F)c2oc(-c3cccc(-c4ccc(F)cc4-c4nncn4C)c3)nc2c1 [HD-2, N-(2-(((2-(4′-Fluoro-2′-(4-methyl-4H-1,2,4-triazol-3-yl)-[1,1′-biphenyl]-3-yl)-7-(trifluoromethyl)benzo[d]oxazol-5-yl)methyl)amino)ethyl)acetamide] | < 200 | < 200 | 0.2 to 1 | –
7 | Cn1cnnc1-c1cc(F)ccc1-c1cccc(-c2nc3cc(CNCC(=O)N4CCC4)cc(C(F)(F)F)c3o2)c1 [HE-4, 1-(Azetidin-1-yl)-2-(((2-(4′-fluoro-2′-(4-methyl-4H-1,2,4-triazol-3-yl)-[1,1′-biphenyl]-3-yl)-7-(trifluoromethyl)benzo[d]oxazol-5-yl)methyl)amino)ethan-1-one] | < 200 | < 200 | 1 to 10 | –
8 | COc1cc(CN[C@@H]2C[C@H](O)C2(C)C)cc2nc(-c3cccc(-c4ccc(F)cc4-c4nncn4C)c3)oc12 [HF-1, (1S,3R)-3-(((2-(4′-Fluoro-2′-(4-methyl-4H-1,2,4-triazol-3-yl)-[1,1′-biphenyl]-3-yl)-7-methoxybenzo[d]oxazol-5-yl)methyl)amino)-2,2-dimethylcyclobutan-1-ol] | < 200 | 200 to 1000 | 1 to 10 | –
9 | Cn1cnnc1-c1cc(F)ccc1-c1cccc(-c2nc3cc(CN[C@@H]4CCC[C@@H]4O)cc(Cl)c3o2)c1 [HG-7, (1S,2R)-2-(((7-Chloro-2-(4′-fluoro-2′-(4-methyl-4H-1,2,4-triazol-3-yl)-[1,1′-biphenyl]-3-yl)benzo[d]oxazol-5-yl)methyl)amino)cyclopentan-1-ol] | < 200 | < 200 | – | < 0.2
10 | Cn1cnnc1-c1cc(F)ccc1-c1cccc(-c2nc3cc(CN[C@@H]4CCC[C@@H]4O)cc(C#N)c3o2)c1 [HH-3, 2-(4′-Fluoro-2′-(4-methyl-4H-1,2,4-triazol-3-yl)-[1,1′-biphenyl]-3-yl)-5-((((1R,2S)-2-hydroxycyclopentyl)amino)methyl)benzo[d]oxazole-7-carbonitrile] | < 200 | < 200 | – | < 0.2
11 | Cn1cnnc1-c1cc(F)ccc1-c1cccc(-c2nc3cc(CN[C@H]4CCC[C@H]4O)cc(C(F)(F)F)c3o2)c1 [HI-2, (1R,2S)-2-(((2-(4′-Fluoro-2′-(4-methyl-4H-1,2,4-triazol-3-yl)-[1,1′-biphenyl]-3-yl)-7-(trifluoromethyl)benzo[d]oxazol-5-yl)methyl)amino)cyclopentan-1-ol] | < 200 | < 200 | < 0.2 | –
12 | Cn1cnnc1-c1cc(F)ccc1-c1cccc(-c2nc3cc(CN[C@H]4CCC[C@@H]4O)cc(C(F)(F)F)c3o2)c1 [HJ-1, (1S,2S)-2-(((2-(4′-Fluoro-2′-(4-methyl-4H-1,2,4-triazol-3-yl)-[1,1′-biphenyl]-3-yl)-7-(trifluoromethyl)benzo[d]oxazol-5-yl)methyl)amino)cyclopentan-1-ol] | < 200 | < 200 | < 0.2 | –
13 | Cn1cnnc1-c1cc(F)ccc1-c1cccc(-c2nc3cc(CNCC4(C)CCC4)cc(C(F)(F)F)c3o2)c1 [HK-2, 1-(2-(4′-Fluoro-2′-(4-methyl-4H-1,2,4-triazol-3-yl)-[1,1′-biphenyl]-3-yl)-7-(trifluoromethyl)benzo[d]oxazol-5-yl)-N-((1-methylcyclobutyl)methyl)methanamine] | < 200 | < 200 | < 0.2 | –
14 | Cn1cnnc1-c1cc(F)ccc1-c1cccc(-c2nc3cc(CNC[C@@]4(C)CCO4)cc(C(F)(F)F)c3o2)c1 [HL-2, (R)-1-(2-(4′-Fluoro-2′-(4-methyl-4H-1,2,4-triazol-3-yl)-[1,1′-biphenyl]-3-yl)-7-(trifluoromethyl)benzo[d]oxazol-5-yl)-N-((2-methyloxetan-2-yl)methyl)methanamine] | < 200 | < 200 | 0.2 to 1 | –
15 | Cn1cnnc1-c1cc(F)ccc1-c1cccc(-c2nc3cc(NCCC4CCCC4)cc(C(F)(F)F)c3o2)c1 [HM-3, N-(2-Cyclopentylethyl)-2-(4′-fluoro-2′-(4-methyl-4H-1,2,4-triazol-3-yl)-[1,1′-biphenyl]-3-yl)-7-(trifluoromethyl)benzo[d]oxazol-5-amine] | 1000 to 10000 | 1000 to 10000 | 1 to 10 | –
16 | Cn1cnnc1-c1cc(F)ccc1-c1cccc(-c2nc3cc(CNCCC4CCCC4)cc(C(F)(F)F)c3o2)c1 [HN-1, 2-Cyclopentyl-N-((2-(4′-fluoro-2′-(4-methyl-4H-1,2,4-triazol-3-yl)-[1,1′-biphenyl]-3-yl)-7-(trifluoromethyl)benzo[d]oxazol-5-yl)methyl)ethan-1-amine] | < 200 | < 200 | 0.2 to 1 | –
17 | Cn1cnnc1-c1cc(F)ccc1-c1cccc(-c2nc3cc(CNC4CC4)cc(C(F)(F)F)c3o2)c1 [HO-2, N-((2-(4′-Fluoro-2′-(4-methyl-4H-1,2,4-triazol-3-yl)-[1,1′-biphenyl]-3-yl)-7-(trifluoromethyl)benzo[d]oxazol-5-yl)methyl)cyclopropanamine] | < 200 | < 200 | < 0.2 | –
18 | CCC1(CNCc2cc(C(F)(F)F)c3oc(-c4cccc(-c5ccc(F)cc5-c5nncn5C)c4)nc3c2)CCC1 [HP-2, 1-(1-Ethylcyclobutyl)-N-((2-(4′-fluoro-2′-(4-methyl-4H-1,2,4-triazol-3-yl)-[1,1′-biphenyl]-3-yl)-7-(trifluoromethyl)benzo[d]oxazol-5-yl)methyl)methanamine] | < 200 | < 200 | < 0.2 | –
19 | CC(C)CC1(CNCc2cc(C(F)(F)F)c3oc(-c4cccc(-c5ccc(F)cc5-c5nncn5C)c4)nc3c2)CCC1 [HQ-2, 1-(2-(4′-Fluoro-2′-(4-methyl-4H-1,2,4-triazol-3-yl)-[1,1′-biphenyl]-3-yl)-7-(trifluoromethyl)benzo[d]oxazol-5-yl)-N-((1-isobutylcyclobutyl)methyl)methanamine] | < 200 | < 200 | 0.2 to 1 | –
20 | CN(Cc1cc(Cl)c2oc(-c3cccc(-c4ccc(F)cc4-c4nncn4C)c3)nc2c1)[C@@H]1CCC[C@@H]1O [HS-3, (1S,2R)-2-(((7-Chloro-2-(4′-fluoro-2′-(4-methyl-4H-1,2,4-triazol-3-yl)-[1,1′-biphenyl]-3-yl)benzo[d]oxazol-5-yl)methyl)(methyl)amino)cyclopentan-1-ol] | < 200 | < 200 | < 0.2 | –
21 | COc1cc(CN(C)[C@@H]2CCC[C@@H]2O)cc2nc(-c3cccc(-c4ccc(F)cc4-c4nncn4C)c3)oc12 [HT-3, (1S,2R)-2-(((2-(4′-Fluoro-2′-(4-methyl-4H-1,2,4-triazol-3-yl)-[1,1′-biphenyl]-3-yl)-7-methoxybenzo[d]oxazol-5-yl)methyl)(methyl)amino)cyclopentan-1-ol] | < 200 | < 200 | 0.2 to 1 | –
22 | Cn1cnnc1-c1cc(F)ccc1-c1cccc(-c2nc3cc(N[C@@H]4CCC[C@@H]4O)cc(C(F)(F)F)c3o2)c1 [HV-3, (1S,2R)-2-((2-(4′-Fluoro-2′-(4-methyl-4H-1,2,4-triazol-3-yl)-[1,1′-biphenyl]-3-yl)-7-(trifluoromethyl)benzo[d]oxazol-5-yl)amino)cyclopentan-1-ol] | 200 to 1000 | 1000 to 10000 | 10 to 50 | –
